The assay is described as follows: biological activity of recombinantly produced (1-38)PTH. Conditions: recombinant product from Gen55-Asn-Gly-Pro-(1-38)PTH fusion. The procedure: From a non-optimized 20 litre fermentation a 78 g wet cell pellet with 50% expression of the fusion protein is harvested. Following lysis and centrifugation, 18 g of “90% pure” inclusion bodies are obtained. Following the acid stop step and centrifugation/filtration about 470 mg Gly-pro-PTH are detected. After HPLC on C4-Vydac, 355 mg of peptide are detected, decreasing to 321 mg after SP-Sepharose cation-exchange. Enzymatic removal of the Gly and Pro residues is carried out at 2 mg/ml.

Ends that are not written are not given here.

Regarding “hPTH-(1-38)-OH (SVSEIQLMHNLGKHLNSMERVEWLRKKLQDVHNFVALG-OH; UniProt P01270 32-69, looked up, fragment) [(1-38)PTH, natural human PTH fragment 1-38, produced recombinantly from a gp55 fusion protein in E. coli]”, the biological activity result is recorded as “fully biologically active”.

Source of the values: patent US20080318838A1, “PEPTIDES” (priority 1992, published 2008).
